In ChEMBL document CHEMBL1156950, “Synthesis and biological evaluation of 4-anilinoquinolines as potent inhibitors of epidermal growth factor receptor” (J Med Chem, 2010):

What was measured:
[1] = target: Mitogen-activated protein kinase 12 (Homo sapiens) (UniProt P53778); experiment: Inhibition of p38-gamma at 10 uM assessed as residual activity by [33P]ATP radioactive filter binding assay relative to control
[2] = target: Dual specificity protein kinase TTK (Homo sapiens) (UniProt P33981); experiment: Inhibition of TTK at 10 uM assessed as residual activity by [33P]ATP radioactive filter binding assay relative to control
[3] = target: Casein kinase I isoform alpha (Homo sapiens) (UniProt P48729); experiment: Inhibition of CK1 at 10 uM assessed as residual activity by [33P]ATP radioactive filter binding assay relative to control
[4] = target: Inhibitor of nuclear factor kappa-B kinase subunit epsilon (Homo sapiens) (UniProt Q14164); experiment: Inhibition of IKKepsilon at 10 uM assessed as residual activity by [33P]ATP radioactive filter binding assay relative to control
[5] = target: Calcium/calmodulin-dependent protein kinase kinase 2 (Homo sapiens) (UniProt Q96RR4); experiment: Inhibition of CAMKKbeta at 10 uM assessed as residual activity by [33P]ATP radioactive filter binding assay relative to control
[6] = target: Homeodomain-interacting protein kinase 1 (Homo sapiens) (UniProt Q86Z02); experiment: Inhibition of HIPK1 at 10 uM assessed as residual activity by [33P]ATP radioactive filter binding assay relative to control
[7] = target: Receptor-interacting serine/threonine-protein kinase 2 (Homo sapiens) (UniProt O43353); experiment: Inhibition of RIPK2 at 10 uM assessed as residual activity by [33P]ATP radioactive filter binding assay relative to control
[8] = target: Serine/threonine-protein kinase Sgk1 (Homo sapiens) (UniProt O00141); experiment: Inhibition of SGK1 at 10 uM assessed as residual activity by [33P]ATP radioactive filter binding assay relative to control
[9] = target: Inhibitor of nuclear factor kappa-B kinase subunit beta (Homo sapiens) (UniProt O14920); experiment: Inhibition of IKK-beta at 10 uM assessed as residual activity by [33P]ATP radioactive filter binding assay relative to control
[10] = target: Mitogen-activated protein kinase 15 (Homo sapiens) (UniProt Q8TD08); experiment: Inhibition of ERK8 at 10 uM assessed as residual activity by [33P]ATP radioactive filter binding assay relative to control
cells [11] = settings: Mus musculus, BaF3, 96 h
Description: Growth inhibition of mouse BA/F3 cells expressing EGFR Del3 and Thr790Met mutant after 96 hrs by cell titer-glo assay

[12] = target: MAP kinase-interacting serine/threonine-protein kinase 2 (Homo sapiens) (UniProt Q9HBH9); experiment: Inhibition of MNK2 at 10 uM assessed as residual activity by [33P]ATP radioactive filter binding assay relative to control
[13] = Inhibition of PKA at 10 uM assessed as residual activity by [33P]ATP radioactive filter binding assay relative to control
[14] = target: Receptor tyrosine-protein kinase erbB-4 (Homo sapiens) (UniProt Q15303); experiment: Inhibition of HER4 at 10 uM assessed as residual activity by [33P]ATP radioactive filter binding assay relative to control
[15] = target: MAP/microtubule affinity-regulating kinase 3 (Homo sapiens) (UniProt P27448); experiment: Inhibition of MARK3 at 10 uM assessed as residual activity by [33P]ATP radioactive filter binding assay relative to control
[16] = target: Interleukin-1 receptor-associated kinase 4 (Homo sapiens) (UniProt Q9NWZ3); experiment: Inhibition of IRAK4 at 10 uM assessed as residual activity by [33P]ATP radioactive filter binding assay relative to control
[17] = target: Glycogen synthase kinase-3 beta (Homo sapiens) (UniProt P49841); experiment: Inhibition of GSK3-beta at 10 uM assessed as residual activity by [33P]ATP radioactive filter binding assay relative to control
[18] = target: Eukaryotic elongation factor 2 kinase (Homo sapiens) (UniProt O00418); experiment: Inhibition of EF2K at 10 uM assessed as residual activity by [33P]ATP radioactive filter binding assay relative to control
[19] = target: Tyrosine-protein kinase Yes (Homo sapiens) (UniProt P07947); experiment: Inhibition of YES1 at 10 uM assessed as residual activity by [33P]ATP radioactive filter binding assay relative to control
cells [20] = settings: Mus musculus, BaF3, 96 h; remark: listed apart in the source
Description: Growth inhibition of mouse BA/F3 cells expressing EGFR Del1 and Thr790Met mutant after 96 hrs by cell titer-glo assay

[21] = target: MAP/microtubule affinity-regulating kinase 4 (Homo sapiens) (UniProt Q96L34); experiment: Inhibition of MARK4 at 10 uM assessed as residual activity by [33P]ATP radioactive filter binding assay relative to control
[22] = target: Insulin receptor (Homo sapiens) (UniProt P06213); experiment: Inhibition of His-IR at 10 uM assessed as residual activity by [33P]ATP radioactive filter binding assay relative to control
[23] = target: Mitogen-activated protein kinase 9 (Homo sapiens) (UniProt P45984); experiment: Inhibition of JNK2 at 10 uM assessed as residual activity by [33P]ATP radioactive filter binding assay relative to control
cells [24] = settings: Mus musculus, BaF3, 96 h; remark: listed apart in the source
Description: Growth inhibition of mouse BA/F3 cells expressing EGFR Del5 mutant after 96 hrs by cell titer-glo assay

[25] = target: Homeodomain-interacting protein kinase 3 (Homo sapiens) (UniProt Q9H422); experiment: Inhibition of HIPK3 at 10 uM assessed as residual activity by [33P]ATP radioactive filter binding assay relative to control
[26] = target: Ephrin type-A receptor 2 (Homo sapiens) (UniProt P29317); experiment: Inhibition of EPHA2 at 10 uM assessed as residual activity by [33P]ATP radioactive filter binding assay relative to control
[27] = target: Ribosomal protein S6 kinase alpha-1 (Homo sapiens) (UniProt Q15418); experiment: Inhibition of RSK1 at 10 uM assessed as residual activity by [33P]ATP radioactive filter binding assay relative to control
[28] = target: Serine/threonine-protein kinase Chk1 (Homo sapiens) (UniProt O14757); experiment: Inhibition of CHK1 at 10 uM assessed as residual activity by [33P]ATP radioactive filter binding assay relative to control
[29] = target: MAP kinase-activated protein kinase 3 (Homo sapiens) (UniProt Q16644); experiment: Inhibition of MAPKAPK-3 at 10 uM assessed as residual activity by [33P]ATP radioactive filter binding assay relative to control
[30] = target: Protein kinase C alpha type (Homo sapiens) (UniProt P17252); experiment: Inhibition of PKCalpha at 10 uM assessed as residual activity by [33P]ATP radioactive filter binding assay relative to control
[31] = Inhibition of AMPK at 10 uM assessed as residual activity by [33P]ATP radioactive filter binding assay relative to control
[32] = target: Epidermal growth factor receptor (Homo sapiens, UniProt P00533, L858R); experiment: Inhibition of EGFR Leu858Arg mutant by HTRF assay; assay type: protein assay
[33] = target: T1, Epidermal growth factor receptor (Homo sapiens, UniProt P00533); experiment: Inhibition of 746-750 sequence deleted EGFR autophosphorylation in human PC9 cells after 24 hrs by immunoblotting; assay type: cell-based; settings: PC-9
[34] = target: T1, Epidermal growth factor receptor; experiment: Inhibition of wild type EGFR by HTRF assay

Chain of Interleukin-1 receptor-associated kinase 4 (Homo sapiens) (Q9NWZ3 whole entry): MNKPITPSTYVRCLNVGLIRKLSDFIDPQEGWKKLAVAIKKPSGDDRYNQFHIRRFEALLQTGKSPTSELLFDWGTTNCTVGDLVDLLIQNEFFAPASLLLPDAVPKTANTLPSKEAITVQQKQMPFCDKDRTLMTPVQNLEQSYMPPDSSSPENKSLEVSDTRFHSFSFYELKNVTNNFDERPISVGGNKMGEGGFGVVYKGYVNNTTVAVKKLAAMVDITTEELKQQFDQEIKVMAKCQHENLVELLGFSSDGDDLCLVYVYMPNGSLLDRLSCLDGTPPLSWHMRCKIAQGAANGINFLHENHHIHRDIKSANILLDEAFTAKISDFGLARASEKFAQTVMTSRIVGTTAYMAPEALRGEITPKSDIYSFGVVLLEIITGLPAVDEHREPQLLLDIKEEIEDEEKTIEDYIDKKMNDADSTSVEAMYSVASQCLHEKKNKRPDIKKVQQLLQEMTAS
Chain of Receptor-interacting serine/threonine-protein kinase 2 (Homo sapiens) (O43353 whole entry): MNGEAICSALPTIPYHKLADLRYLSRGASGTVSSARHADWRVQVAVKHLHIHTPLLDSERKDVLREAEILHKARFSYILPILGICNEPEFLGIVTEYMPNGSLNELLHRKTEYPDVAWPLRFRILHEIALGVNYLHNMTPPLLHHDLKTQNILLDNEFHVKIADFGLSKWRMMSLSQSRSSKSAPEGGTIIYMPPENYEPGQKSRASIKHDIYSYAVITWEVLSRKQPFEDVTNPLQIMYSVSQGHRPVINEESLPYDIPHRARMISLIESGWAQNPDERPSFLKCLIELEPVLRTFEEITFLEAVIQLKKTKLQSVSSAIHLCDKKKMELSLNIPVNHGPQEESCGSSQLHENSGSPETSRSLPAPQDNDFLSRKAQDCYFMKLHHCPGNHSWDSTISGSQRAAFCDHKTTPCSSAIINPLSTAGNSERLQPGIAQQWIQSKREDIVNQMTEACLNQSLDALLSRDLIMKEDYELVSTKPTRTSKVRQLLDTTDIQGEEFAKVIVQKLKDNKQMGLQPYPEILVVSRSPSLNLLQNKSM
Chain of MAP kinase-interacting serine/threonine-protein kinase 2 (Homo sapiens) (Q9HBH9 whole entry, looked up): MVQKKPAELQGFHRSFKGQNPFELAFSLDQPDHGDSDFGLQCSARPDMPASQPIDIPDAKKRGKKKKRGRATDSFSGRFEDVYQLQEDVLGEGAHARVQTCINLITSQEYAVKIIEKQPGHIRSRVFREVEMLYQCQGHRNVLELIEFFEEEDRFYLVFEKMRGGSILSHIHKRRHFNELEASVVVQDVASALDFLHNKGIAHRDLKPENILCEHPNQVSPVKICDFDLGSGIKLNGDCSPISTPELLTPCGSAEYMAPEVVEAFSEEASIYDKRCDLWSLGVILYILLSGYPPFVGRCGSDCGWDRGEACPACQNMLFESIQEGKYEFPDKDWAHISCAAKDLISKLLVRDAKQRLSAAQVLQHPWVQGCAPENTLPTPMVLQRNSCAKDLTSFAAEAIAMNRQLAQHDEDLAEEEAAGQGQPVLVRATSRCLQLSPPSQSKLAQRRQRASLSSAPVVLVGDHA
Chain of Receptor tyrosine-protein kinase erbB-4 (Homo sapiens) (Q15303 whole entry): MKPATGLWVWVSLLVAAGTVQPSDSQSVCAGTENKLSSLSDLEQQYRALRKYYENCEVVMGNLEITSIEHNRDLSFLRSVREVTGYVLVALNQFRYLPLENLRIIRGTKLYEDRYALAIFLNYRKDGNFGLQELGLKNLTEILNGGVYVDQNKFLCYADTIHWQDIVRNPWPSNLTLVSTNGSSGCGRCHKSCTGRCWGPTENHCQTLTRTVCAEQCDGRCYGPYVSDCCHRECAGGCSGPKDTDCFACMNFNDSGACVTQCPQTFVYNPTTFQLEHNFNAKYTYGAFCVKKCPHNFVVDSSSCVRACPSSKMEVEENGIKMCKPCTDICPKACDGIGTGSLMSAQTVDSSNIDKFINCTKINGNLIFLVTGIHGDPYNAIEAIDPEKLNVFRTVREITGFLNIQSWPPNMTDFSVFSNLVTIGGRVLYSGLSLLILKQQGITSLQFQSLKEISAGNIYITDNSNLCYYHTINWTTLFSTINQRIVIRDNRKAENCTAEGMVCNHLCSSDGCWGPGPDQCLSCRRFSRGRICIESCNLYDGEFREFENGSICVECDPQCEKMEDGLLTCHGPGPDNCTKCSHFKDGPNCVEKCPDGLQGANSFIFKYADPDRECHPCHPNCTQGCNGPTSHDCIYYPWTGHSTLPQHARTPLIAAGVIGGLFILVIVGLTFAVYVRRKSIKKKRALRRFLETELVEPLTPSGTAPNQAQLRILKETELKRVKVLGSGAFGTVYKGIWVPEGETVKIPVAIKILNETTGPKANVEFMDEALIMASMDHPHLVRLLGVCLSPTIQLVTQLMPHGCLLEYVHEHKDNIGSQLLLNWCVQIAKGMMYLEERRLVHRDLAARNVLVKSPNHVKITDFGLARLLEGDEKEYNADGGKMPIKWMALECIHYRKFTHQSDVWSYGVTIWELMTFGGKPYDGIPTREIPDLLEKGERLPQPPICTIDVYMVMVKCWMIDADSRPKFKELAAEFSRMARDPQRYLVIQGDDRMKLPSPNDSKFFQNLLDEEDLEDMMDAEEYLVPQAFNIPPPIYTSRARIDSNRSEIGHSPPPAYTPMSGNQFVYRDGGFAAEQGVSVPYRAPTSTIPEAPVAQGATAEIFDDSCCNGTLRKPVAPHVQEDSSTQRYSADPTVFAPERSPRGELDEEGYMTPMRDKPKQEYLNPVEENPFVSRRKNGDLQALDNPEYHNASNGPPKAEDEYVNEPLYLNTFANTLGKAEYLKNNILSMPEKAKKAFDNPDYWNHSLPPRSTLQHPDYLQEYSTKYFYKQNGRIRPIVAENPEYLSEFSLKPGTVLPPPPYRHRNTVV
T1 sequence (P00533 whole entry): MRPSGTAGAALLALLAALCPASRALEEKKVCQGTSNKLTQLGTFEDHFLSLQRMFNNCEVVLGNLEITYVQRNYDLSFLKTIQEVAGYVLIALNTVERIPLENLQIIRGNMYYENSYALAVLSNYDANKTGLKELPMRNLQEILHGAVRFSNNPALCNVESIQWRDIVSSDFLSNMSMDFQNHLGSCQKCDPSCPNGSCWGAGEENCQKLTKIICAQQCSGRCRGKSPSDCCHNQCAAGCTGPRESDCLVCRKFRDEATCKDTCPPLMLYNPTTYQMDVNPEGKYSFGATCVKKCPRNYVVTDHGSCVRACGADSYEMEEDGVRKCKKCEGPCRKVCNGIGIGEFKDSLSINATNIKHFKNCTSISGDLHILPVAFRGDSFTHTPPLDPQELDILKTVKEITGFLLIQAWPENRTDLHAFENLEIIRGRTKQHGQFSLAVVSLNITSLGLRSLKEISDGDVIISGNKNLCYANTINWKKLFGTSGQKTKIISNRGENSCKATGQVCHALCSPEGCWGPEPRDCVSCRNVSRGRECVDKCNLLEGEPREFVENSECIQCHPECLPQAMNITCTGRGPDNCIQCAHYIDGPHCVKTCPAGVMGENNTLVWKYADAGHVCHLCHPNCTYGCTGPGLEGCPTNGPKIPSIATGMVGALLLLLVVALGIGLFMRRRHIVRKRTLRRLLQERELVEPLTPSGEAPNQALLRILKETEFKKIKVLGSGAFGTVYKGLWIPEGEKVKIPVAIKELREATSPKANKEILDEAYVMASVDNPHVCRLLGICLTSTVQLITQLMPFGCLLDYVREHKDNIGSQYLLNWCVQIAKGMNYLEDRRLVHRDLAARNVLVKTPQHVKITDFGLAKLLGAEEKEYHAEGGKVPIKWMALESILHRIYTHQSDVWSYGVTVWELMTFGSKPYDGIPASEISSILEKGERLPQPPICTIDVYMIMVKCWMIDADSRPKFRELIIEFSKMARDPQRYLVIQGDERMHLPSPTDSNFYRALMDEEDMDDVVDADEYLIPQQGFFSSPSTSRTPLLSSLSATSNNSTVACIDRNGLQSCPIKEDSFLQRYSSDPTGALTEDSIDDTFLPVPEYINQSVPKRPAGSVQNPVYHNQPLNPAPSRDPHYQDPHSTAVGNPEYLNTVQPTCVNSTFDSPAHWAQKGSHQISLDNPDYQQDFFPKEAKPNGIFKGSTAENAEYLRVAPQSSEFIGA
Chain of Dual specificity protein kinase TTK (Homo sapiens) (P33981 whole entry, canonical isoform): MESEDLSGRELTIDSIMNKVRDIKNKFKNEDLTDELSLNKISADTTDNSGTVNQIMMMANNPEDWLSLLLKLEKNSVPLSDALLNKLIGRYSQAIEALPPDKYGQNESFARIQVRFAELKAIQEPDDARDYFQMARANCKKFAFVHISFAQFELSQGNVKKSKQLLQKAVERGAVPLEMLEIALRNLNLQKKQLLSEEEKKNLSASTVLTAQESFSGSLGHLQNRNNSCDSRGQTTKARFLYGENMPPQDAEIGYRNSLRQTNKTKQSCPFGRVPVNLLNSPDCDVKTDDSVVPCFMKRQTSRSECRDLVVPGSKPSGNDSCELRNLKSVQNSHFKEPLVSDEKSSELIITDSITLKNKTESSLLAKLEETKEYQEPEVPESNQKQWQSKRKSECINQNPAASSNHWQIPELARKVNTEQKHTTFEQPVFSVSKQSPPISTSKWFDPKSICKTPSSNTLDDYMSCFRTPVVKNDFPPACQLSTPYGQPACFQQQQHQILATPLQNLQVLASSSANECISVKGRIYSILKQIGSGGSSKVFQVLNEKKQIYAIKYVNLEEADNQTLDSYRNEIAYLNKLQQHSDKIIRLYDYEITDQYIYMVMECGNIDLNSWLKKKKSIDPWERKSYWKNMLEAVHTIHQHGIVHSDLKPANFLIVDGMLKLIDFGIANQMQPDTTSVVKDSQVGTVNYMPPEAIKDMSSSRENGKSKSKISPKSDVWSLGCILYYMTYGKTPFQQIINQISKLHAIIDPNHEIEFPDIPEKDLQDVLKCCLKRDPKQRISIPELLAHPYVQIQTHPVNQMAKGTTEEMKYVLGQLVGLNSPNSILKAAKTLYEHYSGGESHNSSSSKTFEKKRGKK

| Structure (SMILES) | Activity [1] | Activity [2] | Activity [3] | Activity [4] | Activity [5] | Activity [6] | Activity [7] | Activity [8] | Activity [9] | Activity [10] | GI50 (cells [11]) | Activity [12] | Activity [13] | Activity [14] | Activity [15] | Activity [16] | Activity [17] | Activity [18] | Activity [19] | GI50 (cells [20]) | other results |
| --- | --- | --- | --- | --- | --- | --- | --- | --- | --- | --- | --- | --- | --- | --- | --- | --- | --- | --- | --- | --- | --- |
| CN(C)CCCC(=O)Nc1ccc2ncnc(Nc3cccc(Br)c3)c2c1 | 85% | 86% | 66% | 89% | 66% | 126% | 10% | 72% | 90% | 78% | > 5000 nM | 14% | 91% | -12% | 86% | 81% | 96% | 91% | 7% | > 5000 nM | Activity [21]: 74%; Activity [22]: 79%; Activity [23]: 77%; GI50 (cells [24]): < 500 nM; Activity [25]: 106%; Activity [26]: 53%; Activity [27]: 72%; Activity [28]: 79%; Activity [29]: 81%; Activity [30]: 78%; Activity [31]: 70% |
| CN(C)CCCC(=O)Nc1ccc2nccc(Nc3cccc(Br)c3)c2c1 | 94% | 85% | 44% | 92% | 74% | 103% | 10% | 82% | 62% | 85% | > 500 nM | 21% | 86% | -10% | 94% | 70% | 89% | 99% | 4% | > 500 nM | IC50 [32]: 0.5 nM; Activity [21]: 75%; Activity [22]: 85%; Activity [23]: 50%; Activity [33]: Dose-dependent effect; GI50 (cells [24]): < 500 nM; Activity [25]: 96%; Activity [26]: 26%; Activity [27]: 89%; Activity [28]: 83%; Activity [29]: 72%; IC50 [34]: 1.7 nM; Activity [30]: 81%; Activity [31]: 83% |
